Test results as given in patent publication US20200108066A1, “METHODS FOR MODULATING REGULATORY T CELLS AND IMMUNE RESPONSES USING CDK4/6 INHIBITORS” (Dana-Farber Cancer Institute, Inc., priority 2017, published 2020).

How the values were obtained:
[1] = system: MMTV-rtTA/tetO-HER2 tumors; test: Tumor growth in MMTV-rtTA/tetO-HER2 transgenic mice; format: in vivo, mouse; settings: bulky tumors growing prior to treatment; three independent experiments
Text: Tumor formation was induced in MMTV-rtTA/tetO-HER2 mice with doxycycline as previously described in Goel et al. (2016) Cancer Cell 29:255-269. Female FVB mice (7 weeks of age) were purchased from Taconic Biosciences (Hudson, N.Y.). Female J:NU nude mice (8 weeks of age) were purchased from Jackson Labs (Bar Harbor, Me.). FVB CD45.2+ mice used as a source of T cells for in vitro studies were a kind gift from Dr. Daniel Tenen. For tumor growth studies in J:NU mice, MMTV-rtTA/tetO-HER2 tumor explants were orthotopically implanted bilaterally into nude mice, as previously described in Goel et al. (2016), supra. […] For tumor experiments in transgenic MMTV-rtTA/tetO-HER2 mice, tumors measured between 5 mm and 15 mm when treatment was begun. Mice were assigned into treatment groups so that the distribution of tumor volumes was even between groups. Tumor volume was calculated as previously described in Goel et al. (2016), supra and tumors were measured by caliper 2-3 times per week. For tumor growth curve analysis, one-way ANOVA tests were performed with correction for multiple comparisons using Sidak's multiple comparisons test. […]

[2] = system: MMTV-rtTA/tetO-HER2 tumors; test: Gene expression (transcriptome, qPCR) in MMTV-rtTA/tetO-HER2 tumor tissue; format: in vivo, mouse
MDA-MB-453 cells = test: Expression analysis (transcriptome, qPCR, Western blot, ELISA) in MDA-MB-453 cells treated in vitro; format: cell-based, human; settings: SASP gene, abemaciclib 500 nM, 7 days, relative to DMSO
[3] = Plasma autoantibody ELISAs (anti-ANA, anti-dsDNA); format: in vivo, mouse; settings: tumor-free and tumor-bearing mice, 12 days
Protocol: For the last 24 hours, the culture media was replaced with serum free media. Following concentration of conditioned media using Amicon® Ultra centrifugal filters (Millipore, Billerica, Mass.), cytokines were analyzed according to the manufacturer's recommendations using the following kits: human IFN gamma ELISA Ready-SET-Go!® (Affymetrix eBioscience), human TNF alpha ELISA Ready-SET-Go!® (Affymetrix eBioscience), Verikine human IFN alpha ELISA kit (PBL assay science, Piscataway, N.J.), VeriKine-HS human IFN beta serum ELISA kit (PBL assay science), human IL-28B quantikine ELISA kit (R&D Systems, Minneapolis, Minn.), human […] Systems), and human IL-29 DuoSet ELISA (R&D Systems). Anti-ANA and anti-dsDNA ELISAs (Alpha Diagnostic, San Antonio, Tex.) were performed according to the manufacturer's instructions on plasma isolated from tumor free or tumor-bearing mice. Absorbance was measured on a SynergyTM Neo plate reader (BioTek, Winooski, Vt.) using Gen5TM software.

thymocytes = test: Thymic mass and thymic cell populations in tumor-free FVB mice; format: in vivo, mouse; settings: 12 days
Protocol: FIG. 10 includes 9 panels, identified as panels A, B, C, D, E, F, G, H, and I, which show the impact of CDK4/6 inhibition on immune cell populations and Treg biology. […] Panel C compares thymic mass with or without abemaciclib/palbociclib treatment. Thymic cell populations were quantified by flow cytometry.
Following mechanical digestion and RBC lysis, single cell suspensions were blocked with anti-CD16/32 for 20 minutes on ice. Cells were incubated with appropriate antibodies for 30 minutes on ice.
Murine antibodies used for flow cytometry include those recognizing CD45 (clone 30-F11), CD3 (clone 145-2C11), CD8 (clone 53-6.7), CD4 (clone RM4-5), PD-1 (clone 29F.1A12), Tim-3 (clone RMT3-23), CTLA-4 (clone UC10-4B9), LAG-3 (clone C9B7W), B220 (clone RA3-6B2), NK1.1 (clone PK136), CD11b (clone M1/70), Ly6G (clone 1A8), Ly6C (clone AL-21), FoxP3 (clone FJK-16s), and Ki-67 (clone 16A8). Human antibodies used for flow cytometry were those recognizing β2-microglobulin (clone 2M2) and HLA-A, B, C (clone W6/32). Antibodies were purchased from Biolegend with the exception of anti-FoxP3 from eBioscience and anti-Ly6C from BD Pharmigen. All antibodies used for flow cytometry were directly conjugated to fluorophores. […] Flow cytometry was performed on a LSRII (BD Biosciences, San Jose, Calif.) or FACSCANTOII (BD Biosciences), and data was analyzed using FlowJo® (TreeStar).

[4] = system: tumor-infiltrating CD8+ and CD4+ T cells; test: Inhibitory co-receptor expression on intratumoral T cells (flow cytometry); format: in vivo, mouse
Protocol: Tumors were first mechanically disrupted by chopping, then chemically digested in dissociation buffer (2 mg/mL collagenase type IV (Worthington Biochemical, Lakewood, N.J.), 0.02 mg/mL DNase (Sigma Aldrich) in DMEM (Life Technologies) containing 5% FBS (Life Technologies), PenStrep (Hyclone)) with agitation at 37° C. for 45 minutes. After RBC lysis, single cell suspensions were blocked with anti-CD16/32 for 20 minutes on ice. Then, cells were incubated with the appropriate antibodies for 30 minutes on ice.
Murine antibodies used for flow cytometry include those recognizing CD45 (clone 30-F11), CD3 (clone 145-2C11), CD8 (clone 53-6.7), CD4 (clone RM4-5), PD-1 (clone 29F.1A12), Tim-3 (clone RMT3-23), CTLA-4 (clone UC10-4B9), LAG-3 (clone C9B7W), B220 (clone RA3-6B2), NK1.1 (clone PK136), CD11b (clone M1/70), Ly6G (clone 1A8), Ly6C (clone AL-21), FoxP3 (clone FJK-16s), and Ki-67 (clone 16A8). Human antibodies used for flow cytometry were those recognizing β2-microglobulin (clone 2M2) and HLA-A, B, C (clone W6/32). Antibodies were purchased from Biolegend with the exception of anti-FoxP3 from eBioscience and anti-Ly6C from BD Pharmigen. All antibodies used for flow cytometry were directly conjugated to fluorophores. The anti-mouse/rat FoxP3 staining set (eBioscience) was used for intracellular staining according to the manufacturer's instructions. 7AAD was used to distinguish live/dead cells, except for analyses requiring intracellular staining when eFluor® 450 fixable viability dye (eBioscience) or Zombie Yellow™ fixable viability dye (Biolegend) were used. To determine the absolute number of cells in a sample, CountBright™ absolute counting beads (Molecular Probes, ThermoFisher) were added. Flow cytometry was performed on a LSRII (BD Biosciences, San Jose, Calif.) or FACSCANTOII (BD Biosciences), and data was analyzed using FlowJo® (TreeStar).
Furthermore, the mRNA level of Ifng (the main effector cytokine of cytotoxic T cells) was more than 4-fold higher in treated bulk tumor tissue (FIG. 13D).

[5] = system: MMTV-rtTA/tetO-HER2 tumors; test: Combined abemaciclib and anti-PD-L1 therapy in MMTV-rtTA/tetO-HER2 tumor bearing mice; format: in vivo, mouse
Protocol: After 3 days, the dose was dropped to 75 mg/kg daily and treatment with an anti-PD-L1 antibody (200 μg by intraperitoneal injection every 72 hours; BioXcell, clone 10F.9G2) or an isotype control antibody (200 μg by intraperitoneal injection every 72 hours) was commenced. Mice were euthanized using CO2 inhalation, and all mouse experiments were performed in accordance with protocols approved by the Institutional Animal Care and Use Committees of Dana-Farber Cancer Institute, Harvard Medical School, and Boston Children's Hospital.

[6] = system: MDA-MB-453 and BT474 cells; test: Doxorubicin-induced senescence; format: cell-based, human; settings: doxorubicin 200 nM 24 h, RNA 72 hours later
Protocol: MDA-MB-453 and BT474 cells were treated with doxorubicin (Sigma Aldrich, 200 nM) for a period of 24 hrs. The cells were then cultured in fresh media for 72 hours after treatment, and RNA was extracted for qPCR.

Structure (SMILES)	average reduction in tumor volume at the 12-day end point [1] [%]	Fold change (abema vs DMSO treatment): COL1A1 ([2]; SASP gene, MMTV-rtTA/tetO-HER2 tumors, abemaciclib 12 days, relative to vehicle) [fold]	mRNA level of Ifng in bulk tumor tissue, treated vs vehicle ([2]; qPCR)	Fold change (abema vs DMSO treatment): COL1A1 (MDA-MB-453 cells) [fold]	autoimmune phenotype: anti-nuclear antibody (ANA) or anti-dsDNA antibody levels [3]	total thymic mass (thymocytes)	fractions of PD-1high and PD-1+/TIM-3+ cytotoxic T cells ([4]; 6 days treatment vs vehicle)	number of inhibitory receptors detected on any given cytotoxic T cell ([4]; 6 days treatment vs vehicle)	reduction of PD-1+/TIM-3+ cytotoxic T cell fraction ([4]; 6 days treatment vs vehicle) [%]	CD8+ cells expressing none of the inhibitory receptors ([4]; abemaciclib treated tumors, 6 days)	average reduction in tumor volume at day 13 of treatment [5] [%]	beta galactosidase and interleukin-6 expression [6]
CCN1CCN(Cc2ccc(Nc3ncc(F)c(-c4cc(F)c5nc(C)n(C(C)C)c5c4)n3)nc2)CC1 [abemaciclib]	40	1.207	more than 4 fold	0.752	No associated increases	significantly reduced	significantly reduced	lower	50	over 50%	35	
COc1cccc2c1C(=O)c1c(O)c3c(c(O)c1C2=O)C[C@@](O)(C(=O)CO)C[C@@H]3O[C@H]1C[C@H](N)[C@H](O)[C@H](C)O1 [doxorubicin]												increased
CC(=O)c1c(C)c2cnc(Nc3ccc(N4CCNCC4)cn3)nc2n(C2CCCC2)c1=O [palbociclib]						significantly reduced						
